Patent US6384026B1, “Macrocyclic polyamine lactones and derivatives thereof and their use as arthropod repellents” (Cornell Research Foundation, Inc., priority 1998, dated 2002)

Legend:
beetles (Carabidae) = assay: Feeding tests with beetles (Carabidae); type: in vivo
[1] = test system: Periplaneta americana (American cockroach); assay: Irritancy tests with cockroaches; type: in vivo
[2] = Isomerization (O-to-N acyl transfer) on storage, analysed by HPLC-MS; type: physicochemical; conditions: substantially pure samples stored at 25° C. for 2 days
[3] = test system: ladybird beetles (Harmonia axyridis); assay: Deterrency bioassays with predacious insects: ladybird beetles; type: in vivo; conditions: synthetic samples
From the text: (§1) Synthetic samples of macrocycles PAML 681, PAML 908, and PAML 1362 (structure 6 of FIG. 3, wherein m, n, o, p, q, and r=7) as well as mixtures of synthetic PAML 681 and Vitamin E acetate were used in bioassays with various predacious insects, for example, ladybird beetles (Harmonia axyridis) and ants of the genus Crematogaster.

[4] = test system: ants of the genus Crematogaster; assay: Deterrency bioassays with predacious insects: ants; type: in vivo; conditions: synthetic samples
From the text: as §1

H. axyridis adults = assay: Feeding choice bioassay with ladybird beetle (treated vs control moth eggs); type: in vivo, Harmonia axyridis; conditions: choice test, moth eggs treated topically with ethyl ether solution vs ethyl ether only
Method: The biological activity of synthetic PAML 681 was also evaluated in a feeding bioassay with a ladybird beetle. The bioassay was a choice test in which individual H. axyridis adults were presented with two offerings of an edible food item, for example, insect eggs of the moth Uthesisia ornatrix, of which one offering was treated by topical application of an ethyl ether solution of PAML 681, while the other offering (“control”) was treated with ethyl ether only. […] Similar experiments were performed with synthetic samples of PAML 908 and PAML 1362, as well as with mixtures of PAML 681 and alpha-tocopherol acetate.

ants = assay: Tests with ants on pupal secretion and its tocopherol components; type: in vivo, Crematogaster cerasi; conditions: E. borealis pupal secretion and components

| SMILES | insect repellent and deterrent activity (beetles (Carabidae)) | insect repellent and deterrent activity (irritancy) [1] | monoamide formed (relative percentage of the total ion current) [2] [%] | activity as insect deterrent [3] | activity as insect deterrent [4] | antifeedant activity (H. axyridis adults) | deterrency in tests with ants (ants) |
| --- | --- | --- | --- | --- | --- | --- | --- |
| CC1CCCCCCCCC(=O)OCCNC(C)CCCCCCCCC(=O)OCCNC(C)CCCCCCCCC(=O)OCCN1 (centres unmarked) [PAML 681] | strong insect repellent and deterrent | strong insect repellent and deterrent | 7 | highly active as insect deterrents | highly active as insect deterrents | strong antifeedant activity | – |
| CC1CCCCCCCCC(=O)OCCNC(C)CCCCCCCCC(=O)OCCNC(C)CCCCCCCCC(=O)OCCNC(C)CCCCCCCCC(=O)OCCN1 (centres unmarked) [PAML 908] | – | – | 10 | highly active as insect deterrents | highly active as insect deterrents | strong antifeedant activity | – |
| CC(=O)Oc1c(C)c(C)c2c(c1C)CCC(C)(CCC[C@H](C)CCC[C@H](C)CCCC(C)C)O2 (some centres unmarked) [vitamin E acetate, Vitamin E acetate] | – | – | – | – | – | – | essentially inactive |
